Holding throughout (assay type): cell-based
For test [1], the system named is MDA-MB-468 cells. As to the kind of experiment: Anti-proliferative toxicity of C63 in tumor cell lines (CCK8): MDA-MB-468. Particulars: Homo sapiens, 72 h, 3 days, read-out: Inhibition rate. The method, then:
(§1) Example 83: Detection of Anti-Proliferative Toxicity of C63 in Some Tumor Cell Lines
MDA-MB-468 cells (purchased from the Cell Bank of the Chinese Academy of Sciences, Cat. No. TCHu136) were subcultured in a culture medium (L15 medium+1% penicillin-streptomycin dual-antibiotic solution+10% fetal bovine serum) in an incubator at 37° C.
MDA-MB-468 cells were seeded at 5000 cells/well (90 μL) on a 96-well plate and cultured for 24 h.
(§2) 10 mM compound stock solutions were prepared in DMSO.
(§3) The compound stock solution was diluted with DMSO to give DMSO solutions 1-9 at concentrations of 0 μM, 2500 μM, 500 μM, 100 μM, 20 μM, 4 μM, 0.8 μM, 0.16 μM, and 0.032 μM.
(§4) 2 μL of each of solutions 1-9 was added to 98 μL of the medium to give mixed solutions 11-19 of the compound and the medium.
(§5) 10 μL of each of solutions 11-19 was added to the above cell seed solution to give a total volume of 100 μL (90 μL+10 μL).
(§6) The concentrations of the compound in the wells were 0 μM, 5.0 μM, 1.0 μM, 0.2 μM, 0.04 μM, 0.008 μM, 0.0016 μM, 0.00032 μM, and 0.000064 μM. All concentrations were in triplicate.
(§7) After the above-treated cells were cultured for 3 days, 10 μL of the CCK8 solution (DOJINDO, Cat. No. PF725) was added to each well. The plate was incubated in an incubator at 37° C. for 1-4 h and then detected on a microplate reader for the reading at 450 nm.

In test [2] the test system is KATO III cells. Nature of the test: Anti-proliferative toxicity of C63 in tumor cell lines (CCK8): KATO III. Particulars: Homo sapiens, 72 h, 3 days, read-out: Inhibition rate. On the procedure:
as §1
KATOIII cells (purchased from the Cell Bank of the Chinese Academy of Sciences, Cat. No. TCHu229) were subcultured in a culture medium (IMDM medium+1% penicillin-streptomycin dual-antibiotic solution+10% fetal bovine serum) in an incubator at 5% carbon dioxide and 37° C.
KATO III cells were seeded at 8000 cells/well (90 μL) on a 96-well plate and cultured for 24 h.
as §2, §3, §4, §5, §6, §7

The subject of test [3] is HGC-27 cells. Nature of the test: Anti-proliferative toxicity of C63 in tumor cell lines (CCK8): HGC-27. The note with it: Homo sapiens, 72 h, 3 days, read-out: Inhibition rate. On the procedure: as §1
HGC-27 cells (purchased from the Cell Bank of the Chinese Academy of Sciences, Cat. No. TCHu22) were subcultured in a culture medium (RPMI-1640 medium+1% penicillin-streptomycin dual-antibiotic solution++20% fetal bovine serum) in an incubator at 5% carbon dioxide and 37° C.
HGC-27 cells were seeded at 3000 cells/well (90 μL) on a 96-well plate and cultured for 24 h.
as §2, §3, §4, §5, §6, §7

For test [4], the target named is T1, GSPT1 (eRF3a) (Homo sapiens, UniProt P15170+Q96SW2).
T1 construct: The downregulation of SRD5A3 and GSPT1 (eRF3a) proteins in PC-3 and HepG2 cells by C59; endogenous in cells; host or cells: 22Rv1, PC-3, HepG2
As to the kind of experiment: Western blot assay in PC-3 cells: GSPT1 (eRF3a). Particulars: different concentrations at 24 h (FIG. 9). From the text: Example 84: Western Blot Assay of Compound C59 in 22Rv1, PC-3, and HepG2 Cells
(1) Materials: 22Rv1, PC-3, and HepG2 cell, anti-SRD5A1 antibody (ab167606), anti-SRD5A2 antibody (ab124877), anti-SRD5A3 antibody (PA5-107029), anti-androgen receptor (AR) antibody (CST, No. 5153), anti-GSPT1 antibody (Abcam, ab234433), anti-GADPH antibody (CST, No. 5174), anti-c-Myc antibody (CST, No. 8583), anti-α-tublin antibody (CST, No. 2125), anti-rabbit IgG, HRP-linked antibody (CST, No. 7074), electrophoresis device and membrane transfer device (LIUYI, BEIJING; DYCZ-24DN)
Cell seeding: 22Rv1 (Cell Bank of the Chinese Academy of Sciences, TCHu100), PC-3 (Cell Bank of the Chinese Academy of Sciences, SCSP-532) and HepG2 cells (Cell Bank of the Chinese Academy of Sciences, TCHu72) were subcultured and trypsinized to prepare 6×10^5 cells/mL suspensions, seeded on 6-well plates (3 mL/well), and cultured overnight in a cell incubator at 5% CO2 and 37° C. […]
Protein quantification: The protein was quantified using a BCA protein quantification kit. […]
Western immunoblot assay (or Western blot, WB): SDS-PAGE gel at a proper concentration was prepared according to the molecular weight of the target protein: for example, the concentration of the separation gel was 8% and the concentration of the stacking gel was 5%. The loading volume was adjusted according to the protein quantification results. […]

The structures appear in SMILES notation.

The record followed here is patent US20250213701A1, “MEDICAMENT FOR TREATING HUMAN TUMOR BASED ON ERF3A-TARGETING PROTEOLYSIS MECHANISM” (SUZHOU DEGEN BIO-MEDICAL CO., LTD., priority 2022, published 2025).

T1 sequence (P15170 1-637 isoform P15170-3): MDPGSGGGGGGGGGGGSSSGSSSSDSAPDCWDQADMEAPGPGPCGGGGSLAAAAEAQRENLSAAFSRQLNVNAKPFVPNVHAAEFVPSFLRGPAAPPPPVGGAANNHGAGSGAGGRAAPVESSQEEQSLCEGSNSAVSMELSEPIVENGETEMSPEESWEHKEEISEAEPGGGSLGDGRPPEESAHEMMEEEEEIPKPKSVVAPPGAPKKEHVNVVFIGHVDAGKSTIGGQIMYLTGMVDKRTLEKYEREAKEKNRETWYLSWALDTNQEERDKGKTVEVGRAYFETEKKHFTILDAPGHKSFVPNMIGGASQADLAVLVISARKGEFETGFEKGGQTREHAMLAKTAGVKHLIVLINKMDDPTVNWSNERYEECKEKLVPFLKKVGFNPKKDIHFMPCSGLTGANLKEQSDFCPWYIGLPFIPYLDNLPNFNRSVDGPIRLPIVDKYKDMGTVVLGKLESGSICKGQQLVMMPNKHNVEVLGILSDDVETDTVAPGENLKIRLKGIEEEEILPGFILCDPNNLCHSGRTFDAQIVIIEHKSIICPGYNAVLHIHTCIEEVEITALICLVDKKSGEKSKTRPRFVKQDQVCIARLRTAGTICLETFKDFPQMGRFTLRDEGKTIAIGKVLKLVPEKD
T1 sequence (Q96SW2 whole entry): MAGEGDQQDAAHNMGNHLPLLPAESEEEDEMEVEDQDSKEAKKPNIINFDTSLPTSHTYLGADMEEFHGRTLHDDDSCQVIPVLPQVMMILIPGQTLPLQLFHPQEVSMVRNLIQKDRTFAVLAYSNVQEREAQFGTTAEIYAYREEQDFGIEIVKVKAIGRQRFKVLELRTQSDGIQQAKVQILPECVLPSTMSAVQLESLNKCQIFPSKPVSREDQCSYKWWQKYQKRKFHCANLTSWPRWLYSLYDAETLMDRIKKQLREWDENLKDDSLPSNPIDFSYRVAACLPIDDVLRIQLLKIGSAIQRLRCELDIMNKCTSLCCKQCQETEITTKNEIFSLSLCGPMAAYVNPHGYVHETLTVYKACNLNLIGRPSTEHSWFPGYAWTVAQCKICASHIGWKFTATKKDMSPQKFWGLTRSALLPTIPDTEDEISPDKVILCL
T1 sequence (Q16531 whole entry partner): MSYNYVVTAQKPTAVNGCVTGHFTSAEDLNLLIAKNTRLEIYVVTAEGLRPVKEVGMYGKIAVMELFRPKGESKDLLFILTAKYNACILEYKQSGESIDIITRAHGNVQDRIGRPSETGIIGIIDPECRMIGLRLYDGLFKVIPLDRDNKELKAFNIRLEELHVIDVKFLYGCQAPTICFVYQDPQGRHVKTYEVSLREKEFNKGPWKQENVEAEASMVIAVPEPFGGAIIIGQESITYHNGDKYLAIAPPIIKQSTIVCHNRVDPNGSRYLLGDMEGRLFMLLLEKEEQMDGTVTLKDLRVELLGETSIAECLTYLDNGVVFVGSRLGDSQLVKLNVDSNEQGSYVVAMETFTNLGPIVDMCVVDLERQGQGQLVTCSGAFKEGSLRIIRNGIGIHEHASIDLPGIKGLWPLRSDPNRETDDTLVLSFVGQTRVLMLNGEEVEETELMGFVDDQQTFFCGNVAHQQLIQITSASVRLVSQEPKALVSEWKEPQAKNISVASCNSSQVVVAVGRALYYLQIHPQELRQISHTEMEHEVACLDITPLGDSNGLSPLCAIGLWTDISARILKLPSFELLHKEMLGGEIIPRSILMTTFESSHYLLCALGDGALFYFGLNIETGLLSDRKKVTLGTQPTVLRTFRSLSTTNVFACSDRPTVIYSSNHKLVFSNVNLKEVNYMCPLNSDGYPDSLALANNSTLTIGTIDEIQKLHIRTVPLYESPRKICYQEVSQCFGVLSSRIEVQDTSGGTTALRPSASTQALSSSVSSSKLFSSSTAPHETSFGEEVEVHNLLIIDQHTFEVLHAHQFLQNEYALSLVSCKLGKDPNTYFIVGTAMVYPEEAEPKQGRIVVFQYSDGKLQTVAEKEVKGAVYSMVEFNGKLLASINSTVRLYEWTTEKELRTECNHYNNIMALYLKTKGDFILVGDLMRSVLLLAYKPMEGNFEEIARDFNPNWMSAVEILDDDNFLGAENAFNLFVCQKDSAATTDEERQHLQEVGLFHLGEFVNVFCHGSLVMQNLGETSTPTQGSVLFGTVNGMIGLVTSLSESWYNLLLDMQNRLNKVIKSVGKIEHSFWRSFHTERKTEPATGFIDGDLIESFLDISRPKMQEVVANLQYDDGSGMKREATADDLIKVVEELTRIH

For `C[C@]12C=CC(=O)N[C@@H]1CC[C@@H]1[C@@H]2CC[C@]2(C)[C@@H](C(=O)Nc3cccc(N[C@@H]4CCC[C@@H](Nc5cccc6c5C(=O)N([C@H]5CCC(=O)NC5=O)C6=O)C4)c3)CC[C@@H]12` [C63, N-(3-(N—(N-(4-(2-(3S-(2,6-dioxopiperidine))-isoindole-1,3-dione))-1R,3R-cyclohexanediamine))phenyl)-3-oxo-4-aza-5α-androst-1-ene-17β-carboxamide], the inhibition at 64 pM in test [1] (0.000064 μM) worked out at 4.42%; in test [2] (0.000064 μM) it was 1.09%; in test [3] (0.000064 μM) it was 7.74%. The results for the inhibition at 0.00032 µM in test [1] (0.000320 μM), in test [2] (0.000320 μM) and in test [3] (0.000320 μM) were 30.5%, 2.17% and 9.52%, respectively. Further, the inhibition at 0.0016 µM in test [1] (0.001600 μM) is 55.1%; in test [2] (0.001600 μM), 15.9%; in test [3] (0.001600 μM) it was 80%. For the same molecule, the inhibition at 0.008 µM was determined as 64.6% in test [1] (0.008000 μM), 51.5% in test [2] (0.008000 μM) and 94.2% in test [3] (0.008000 μM). Further, the inhibition at 0.04 µM in test [1] (0.040000 μM) was 65%; in test [2] (0.040000 μM), 67.9%; in test [3] (0.040000 μM), 97.1%. Besides, the figures for the inhibition at 0.2 µM in test [1] (0.200000 μM), in test [2] (0.200000 μM) and in test [3] (0.200000 μM) were 65.5%, 74.8% and 98.3%, respectively. Further, the values for the inhibition at 1 µM in test [1] (1.000000 μM), in test [2] (1.000000 μM) and in test [3] (1.000000 μM) were 70.2%, 74.7% and 98.2%, respectively. Moreover, the inhibition at 5 µM in test [1] (5.000000 μM) was found to be 74%; in test [2] (5.000000 μM) it was 72.3%; in test [3] (5.000000 μM), 97.7%.

Consider `C[C@]12C=CC(=O)N[C@@H]1CC[C@@H]1[C@@H]2CC[C@]2(C)[C@@H](C(=O)Nc3cccc(N[C@@H]4CCC[C@@H](Nc5cccc6c5C(=O)N(C5CCC(=O)NC5=O)C6=O)C4)c3)CC[C@@H]12` (stereo partly drawn) [C59, N-(3-(N—(N-(4-(2-(3-(2,6-dioxopiperidine))-isoindole-1,3-dione))-1R,3R-cyclohexanediamine))phenyl)-3-oxo-4-aza-5α-androst-1-ene-17β-carboxamide], for which the “downregulation of GSPT1 (eRF3a) protein (Western blot)” value in test [4] is “downregulation”.
